Measured values published in patent publication US20260070906A1, “IMIDAZO[4,5-C]PYRIDINE COMPOUNDS FOR THE TREATMENT OF CANCER” (Hoffmann-La Roche Inc., priority 2023, published 2026).

How the values were obtained:
[1] = biological target: T1, human TLR7 (Homo sapiens, UniProt Q9NYK1); assay: HEK293-Blue-hTLR7 cells assay (NF-κB SEAP reporter); format: cell-based; details: 20 hrs incubation, agonism
T1 construct: host or cells: HEK293-Blue-hTLR7 (HEK293)
T1 sequence (Q9NYK1 27-1049): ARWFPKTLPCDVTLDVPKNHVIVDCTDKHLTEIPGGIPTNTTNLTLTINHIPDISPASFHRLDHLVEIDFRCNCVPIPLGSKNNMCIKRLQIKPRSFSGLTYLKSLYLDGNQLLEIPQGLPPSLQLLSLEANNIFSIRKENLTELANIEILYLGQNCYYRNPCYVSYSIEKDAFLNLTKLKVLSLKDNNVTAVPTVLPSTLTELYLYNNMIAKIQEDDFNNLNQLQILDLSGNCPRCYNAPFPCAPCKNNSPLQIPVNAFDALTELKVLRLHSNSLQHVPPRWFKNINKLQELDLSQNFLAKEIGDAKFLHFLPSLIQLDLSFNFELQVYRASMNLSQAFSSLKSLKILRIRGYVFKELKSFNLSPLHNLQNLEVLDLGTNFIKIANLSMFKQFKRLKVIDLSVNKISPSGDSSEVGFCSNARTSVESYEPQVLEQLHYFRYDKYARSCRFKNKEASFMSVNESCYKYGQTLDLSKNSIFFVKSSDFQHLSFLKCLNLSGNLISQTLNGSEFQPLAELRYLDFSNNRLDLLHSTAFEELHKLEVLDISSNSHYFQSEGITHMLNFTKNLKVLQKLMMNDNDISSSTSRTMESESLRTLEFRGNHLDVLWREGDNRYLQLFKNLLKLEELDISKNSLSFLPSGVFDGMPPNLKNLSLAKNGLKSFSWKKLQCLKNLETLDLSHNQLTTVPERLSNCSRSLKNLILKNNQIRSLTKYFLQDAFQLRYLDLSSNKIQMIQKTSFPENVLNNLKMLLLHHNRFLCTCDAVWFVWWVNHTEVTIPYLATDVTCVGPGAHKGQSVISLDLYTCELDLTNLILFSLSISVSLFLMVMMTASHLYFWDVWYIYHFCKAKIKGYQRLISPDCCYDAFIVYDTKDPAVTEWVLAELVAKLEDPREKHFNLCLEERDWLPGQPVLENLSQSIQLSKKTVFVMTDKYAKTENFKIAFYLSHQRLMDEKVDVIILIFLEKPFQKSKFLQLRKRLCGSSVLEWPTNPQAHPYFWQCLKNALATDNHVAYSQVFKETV
From the text: A stable HEK293-Blue-hTLR7 cell line was purchased from InvivoGen (Cat. #: hkb-htlr7, San Diego, California, USA). These cells were designed for studying the stimulation of human TLR7 by monitoring the activation of NF-κB. A SEAP (secreted embryonic alkaline phosphatase) reporter gene was placed under the control of the IFN-β minimal promoter fused to five NF-κB and AP-1-binding sites. The SEAP was induced by activating NF-κB and AP-1 via stimulating HEK-Blue hTLR7 cells with TLR7 ligands. Therefore the reporter expression was regulated by the NF-κB promoter upon stimulation of human TLR7 for 20 hrs. The cell culture supernatant SEAP reporter activity was determined using QUANTI-Blue™ kit (Cat. #: rep-qbl, Invivogen, San Diego, Ca, USA) at a wavelength of 650 nm, a detection medium that turns purple or blue in the presence of alkaline phosphatase.
HEK293-Blue-hTLR7 cells were incubated at a density of 250,000˜450,000 cells/mL in a volume of 180 μL in a 96-well plate in Dulbecco's Modified Eagle's medium (DMEM) containing 4.5 g/L glucose, 100 U/mL penicillin, 100 μg/mL streptomycin, 100 μg/mL Normocin, 1% (V/V) GlutaMAX™, 10% (V/V) heat-inactivated fetal bovine serum for 24 hrs. Then the HEK293-Blue-hTLR-7 cells were incubated with addition of 20 μL test compound in a serial dilution in the presence of final DMSO at 1% and perform incubation under 37° C. in a CO2 incubator for 20 hrs. Then 20 μL of the supernatant from each well was incubated with 180 μL Quanti-blue substrate solution at 37° C. for 1 hours and the absorbance was read at 620-655 nm using a spectrophotometer. The signalling pathway that TLR7 activation leads to downstream NF-κB activation has been widely accepted, and therefore similar reporter assay was also widely used for evaluating TLR7 agonist (Tsuneyasu Kaisho and Takashi Tanaka, Trends in Immunology, Volume 29, Issue 7, July 2008, […]; Hiroaki Hemmi et al, Nature Immunology 3, 196-200 (2002)).

[2] = biological target: T2, human TLR8 (Homo sapiens, UniProt Q9NR97); assay: HEK293-Blue-hTLR8 cells assay (NF-κB SEAP reporter); format: cell-based; details: 20 hours incubation, agonism
T2 construct: host or cells: HEK293-Blue-hTLR8 (HEK293)
T2 sequence (Q9NR97 27-1041): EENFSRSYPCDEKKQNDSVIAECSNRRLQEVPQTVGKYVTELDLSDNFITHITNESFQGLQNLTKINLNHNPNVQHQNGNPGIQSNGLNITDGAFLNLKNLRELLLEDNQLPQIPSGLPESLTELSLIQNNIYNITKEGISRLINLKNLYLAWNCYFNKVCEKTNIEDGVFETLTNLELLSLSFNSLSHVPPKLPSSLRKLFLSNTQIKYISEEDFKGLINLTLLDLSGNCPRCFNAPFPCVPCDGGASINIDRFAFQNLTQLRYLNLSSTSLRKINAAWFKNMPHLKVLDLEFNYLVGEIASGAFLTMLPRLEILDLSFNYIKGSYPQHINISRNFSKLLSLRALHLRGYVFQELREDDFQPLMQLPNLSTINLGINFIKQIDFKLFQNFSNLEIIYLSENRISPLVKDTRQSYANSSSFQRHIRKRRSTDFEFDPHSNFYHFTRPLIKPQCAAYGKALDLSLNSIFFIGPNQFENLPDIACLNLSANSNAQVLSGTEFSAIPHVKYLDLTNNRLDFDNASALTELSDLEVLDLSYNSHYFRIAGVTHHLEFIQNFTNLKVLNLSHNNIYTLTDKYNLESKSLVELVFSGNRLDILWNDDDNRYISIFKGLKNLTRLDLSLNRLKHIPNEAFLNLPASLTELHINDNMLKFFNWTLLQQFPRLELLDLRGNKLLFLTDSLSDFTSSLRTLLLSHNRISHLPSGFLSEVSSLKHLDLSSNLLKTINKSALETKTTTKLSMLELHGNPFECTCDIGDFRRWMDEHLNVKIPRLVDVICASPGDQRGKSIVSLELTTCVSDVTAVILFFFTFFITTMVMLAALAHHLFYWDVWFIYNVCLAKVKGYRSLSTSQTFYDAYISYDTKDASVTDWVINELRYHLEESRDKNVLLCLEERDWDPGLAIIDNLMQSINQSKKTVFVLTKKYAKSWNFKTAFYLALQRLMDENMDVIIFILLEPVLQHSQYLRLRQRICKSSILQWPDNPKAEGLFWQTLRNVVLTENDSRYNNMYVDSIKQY
From the text: A stable HEK293-Blue-hTLR8 cell line was purchased from InvivoGen (Cat. #: hkb-htlr8, San Diego, California, USA). These cells were designed for studying the stimulation of human TLR8 by monitoring the activation of NF-κB. A SEAP (secreted embryonic alkaline phosphatase) reporter gene was placed under the control of the IFN-β minimal promoter fused to five NF-κB and AP-1-binding sites. The SEAP was induced by activating NF-κB and AP-1 via stimulating HEK-Blue hTLR8 cells with TLR8 ligands. Therefore the reporter expression was regulated by the NF-κB promoter upon stimulation of human TLR8. The cell culture supernatant SEAP reporter activity was determined using QUANTI-Blue™ kit (Cat. #: rep-qbl, Invivogen, San Diego, Ca, USA) at a wavelength of 650 nm, a detection medium that turns purple to blue in the presence of alkaline phosphatase.
HEK293-Blue-hTLR8 cells were incubated at a density of 250,000-450,000 cells/mL in a volume of 180 μL in a 96-well plate in Dulbecco's Modified Eagle's medium (DMEM) containing 4.5 g/L glucose, 100 U/mL penicillin, 100 μg/mL streptomycin, 100 μg/mL Normocin, 1% (V/V) GlutaMAX™, 10% (v/v) heat-inactivated fetal bovine serum for 24 hours. Then the HEK293-Blue-hTLR8 cells were incubated with addition of 20 μL test compound in a serial dilution in the presence of final DMSO at 1% and perform incubation under 37° C. in a CO2 incubator for 20 hours. Then 20 μL of the supernatant from each well was incubated with 180 μL Quanti-blue substrate solution at 37° C. for 1 hours and the absorbance was read at 620-655 nm using a spectrophotometer. The signalling pathway that TLR8 activation leads to downstream NF-κB activation has been widely accepted, and therefore similar reporter assay was also widely used for evaluating TLR8 agonist.

Compound	EC50 [1]	EC50 [2]
CCOCc1nc2c(N)nc(C)c(Sc3c(N)cc(CN4CCN(C)CC4)cc3OC)c2[nH]1 [Example 29, 7-[2-amino-6-methoxy-4-[(4-methylpiperazin-1-yl)methyl]phenyl]sulfanyl-2-(ethoxymethyl)-6-methyl-1H-imidazo[4,5-c]pyridin-4-amine]	6 nM	44 nM
CCOCc1nc2c(N)nc(C)c(Sc3ccc(CCN(C)C)cc3)c2[nH]1 [Example 31, 7-[4-[2-(dimethylamino)ethyl]phenyl]sulfanyl-2-(ethoxymethyl)-6-methyl-1H-imidazo[4,5-c]pyridin-4-amine]	18 nM	5 nM
CCOCc1nc2c(N)nc(C)c(Sc3ccc(CN(C)C)c(OC)c3)c2[nH]1 [Example 9, 7-[4-[(dimethylamino)methyl]-3-methoxy-phenyl]sulfanyl-2-(ethoxymethyl)-6-methyl-1H-imidazo[4,5-c]pyridin-4-amine]	30 nM	3 nM
CCCCc1nc2c(N)nc(C)c(Sc3ccc(CN(C)C)cc3)c2n1CC(C)(C)O [Example 2, 1-[4-amino-2-butyl-7-[4-[(dimethylamino)methyl]phenyl]sulfanyl-6-methyl-imidazo[4,5-c]pyridin-1-yl]-2-methyl-propan-2-ol]	35 nM	28 nM
CCOCc1nc2c(N)nc(C)c(Sc3ccc(CN(C)CC)cc3)c2[nH]1 [Example 6, 2-(ethoxymethyl)-7-[4-[[ethyl(methyl)amino]methyl]phenyl]sulfanyl-6-methyl-1H-imidazo[4,5-c]pyridin-4-amine]	15 nM	10 nM
CCCN(CC)Cc1ccc(Sc2c(C)nc(N)c3nc(COCC)[nH]c23)cc1 [Example 5, 2-(ethoxymethyl)-7-[4-[[ethyl(propyl)amino]methyl]phenyl]sulfanyl-6-methyl-1H-imidazo[4,5-c]pyridin-4-amine]	18 nM	30 nM
CCCCc1nc2c(N)nc(C)c(SCCc3ccc(CN(C)C)cc3)c2[nH]1 [Example 15, 2-butyl-7-[2-[4-[(dimethylamino)methyl]phenyl]ethylsulfanyl]-6-methyl-1H-imidazo[4,5-c]pyridin-4-amine]	6 nM	22 nM
CCOCc1nc2c(N)nc(C)c(Sc3c(OC)cc(CN(C)C)cc3OC)c2[nH]1 [Example 4, 7-[4-[(dimethylamino)methyl]-2,6-dimethoxy-phenyl]sulfanyl-2-(ethoxymethyl)-6-methyl-1H-imidazo[4,5-c]pyridin-4-amine]	1 nM	20 nM
CCCCc1nc2c(N)nc(C)c(Sc3ccc(CN(C)C)cc3)c2[nH]1 [Example 14, 2-butyl-7-[4-[(dimethylamino)methyl]phenyl]sulfanyl-6-methyl-1H-imidazo[4,5-c]pyridin-4-amine]	15 nM	14 nM
CCOCc1nc2c(N)nc(C)c(SCCc3ccc(CN(C)C)cc3)c2[nH]1 [Example 10, 7-[2-[4-[(dimethylamino)methyl]phenyl]ethylsulfanyl]-2-(ethoxymethyl)-6-methyl-1H-imidazo[4,5-c]pyridin-4-amine]	8 nM	10 nM
CCOCc1nc2c(N)nc(C)c(Sc3ccc(CN(C)C)cc3N)c2[nH]1 [Example 20, 7-[2-amino-4-[(dimethylamino)methyl]phenyl]sulfanyl-2-(ethoxymethyl)-6-methyl-LH-imidazo[4,5-c]pyridin-4-amine]	22 nM	40 nM
CCOCc1nc2c(N)nc(C)c(Sc3ccc(CN4CCCC4)cc3O)c2[nH]1 [Example 22, 2-[[4-amino-2-(ethoxymethyl)-6-methyl-1H-imidazo[4,5-c]pyridin-7-yl]sulfanyl]-5-(pyrrolidin-1-ylmethyl)phenol]	28 nM	37 nM
CCOCc1nc2c(N)nc(C)c(Sc3ccc(C(C)N(C)C)cc3O)c2[nH]1 (stereo not shown) [Example 24, 2-[[4-amino-2-(ethoxymethyl)-6-methyl-1H-imidazo[4,5-c]pyridin-7-yl]sulfanyl]-5-[1-(dimethylamino)ethyl]phenol]	22 nM	56 nM
CCOCc1nc2c(N)nc(C)c(Sc3ccc(CN(C)C)c4cn[nH]c34)c2[nH]1 [Example 19, 7-[[4-[(dimethylamino)methyl]-1H-indazol-7-yl]sulfanyl]-2-(ethoxymethyl)-6-methyl-1H-imidazo[4,5-c]pyridin-4-amine]	48 nM	43 nM
